By EC50 is commonly meant the concentration that produces a half-maximal response. As usually defined, the bioavailability is the share of a dose that reaches the circulation, judged against a reference dose that is usually intravenous. By clearance is commonly meant a measure of how efficiently the substance is removed, as volume per time.

Data set [1] deals with T1, Bile acid receptor (Homo sapiens) (UniProt Q96RI1).
T1 sequence (whole entry): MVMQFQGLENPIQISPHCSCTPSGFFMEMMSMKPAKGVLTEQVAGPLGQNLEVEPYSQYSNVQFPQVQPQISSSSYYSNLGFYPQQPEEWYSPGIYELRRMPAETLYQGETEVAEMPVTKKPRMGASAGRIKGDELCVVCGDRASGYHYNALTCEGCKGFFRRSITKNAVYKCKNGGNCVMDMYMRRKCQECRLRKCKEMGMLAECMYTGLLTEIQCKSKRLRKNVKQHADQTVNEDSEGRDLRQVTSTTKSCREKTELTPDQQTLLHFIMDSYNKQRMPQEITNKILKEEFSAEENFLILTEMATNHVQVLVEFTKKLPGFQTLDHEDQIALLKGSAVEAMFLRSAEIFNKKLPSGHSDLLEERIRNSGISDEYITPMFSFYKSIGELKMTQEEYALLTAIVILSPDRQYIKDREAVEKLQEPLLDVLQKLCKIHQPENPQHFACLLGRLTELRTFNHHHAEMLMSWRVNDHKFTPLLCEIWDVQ
Kind of data set: Increase in human FXR-mediated transient transcription of luciferase reporter gene transfected in african green monkey CV1 cells relative to GW-4064. The data set is classed as cell-based. Further details: concentration or dose not given beside the values. As to conditions: CV-1. (In general: A reporter such as luciferase makes a cellular process visible.)

Data set [2] addresses T2, Bile acid receptor (Homo sapiens, UniProt Q96RI1).
T2 sequence (Q96RI1 whole entry): T1 sequence (whole entry)
Briefly: Increase in human FXR-mediated transient transcription of luciferase reporter gene transfected in african green monkey CV1 cells. It counts as cell-based, CV-1.

The target in data set [3] is T2, Bile acid receptor. Briefly: Induction of SRC1 coactivator peptide binding to ligand binding domain of human FXR by FRET assay.
Data set [4] concerns the target T1, Bile acid receptor (Homo sapiens). Kind of data set: Induction of SRC1 coactivator peptide binding to ligand binding domain of human FXR by FRET assay relative to GW-4064. Further details: concentration or dose not given beside the values.
A short description of data set [5]: Volume of distribution at steady state in rat at 1 mg/kg, iv. On the set-up: dose 1 mg/kg, route intravenous. The data set is classed as ADME, organism-based. As to conditions: in vivo, read-out: Vdss.
Data set [6] can be described thus: Oral bioavailability in rat at 5 mg/kg. It counts as ADME, organism-based. The settings on record: in vivo.
Data set [7] in a line: Terminal half life in rat at 1 mg/kg, iv. The data set is classed as ADME, organism-based. On the set-up: dose 1 mg/kg, route intravenous. As to conditions: in vivo, read-out: beta t1/2.
Data set [8] in a line: Total clearance in rat at 1 mg/kg, iv. It counts as ADME, organism-based. Further details: dose 1 mg/kg, route intravenous. As to conditions: in vivo.

Structures are written as SMILES.

For `CC(C)c1onc(-c2c(Cl)cccc2Cl)c1COc1ccc2cc(-c3ccc(C(=O)O)cc3)sc2c1`, the results for the Activity in data set [1] and in data set [4] were 79% and 95%, respectively. The concentration for a half-maximal effect (EC50) was found to be 220 nM at Bile acid receptor [2] and 200 nM at Bile acid receptor [3].

Take `CC(C)c1onc(-c2c(Cl)cccc2Cl)c1COc1ccc2c(ccn2Cc2ccc(C(=O)O)cc2)c1`: the Activity was 79% in data set [1] and 80% in data set [4]. For the same compound, the values for the EC50 at Bile acid receptor [2] and on Bile acid receptor [3] were 330 nM and 160 nM, respectively.

Consider `CC(C)c1onc(-c2c(Cl)cccc2Cl)c1COc1ccc2c(c1)CC(=O)N(c1cccc(C(=O)O)c1)C2`, for which the values for the EC50 on Bile acid receptor [2] and on Bile acid receptor [3] were more than 10000 nM and 1100 nM, respectively. Besides, the Activity in data set [4] came to 75%.

In the case of `CC(C)c1onc(-c2c(Cl)cccc2Cl)c1COc1ccc2[nH]c(-c3cccc(C(=O)O)c3)cc2c1`, the Activity in data set [1] amounted to 103%; in data set [4], 81%. The values for the EC50 on Bile acid receptor [2] and on Bile acid receptor [3] were 630 nM and 480 nM, respectively.

In the case of `CC(C)c1onc(-c2c(Cl)cccc2Cl)c1COc1ccc2nc(-c3cccc(C(=O)O)c3)sc2c1`, the values for the Activity in data set [1] and in data set [4] were 86% and 72%, respectively. For the same compound, the EC50 on Bile acid receptor [2] and on Bile acid receptor [3] was 410 nM throughout.

As for `CC(C)c1onc(-c2c(Cl)cccc2Cl)c1COc1ccc2c(ccn2Cc2cccc(C(=O)O)c2)c1`, the Vd in data set [5] turned out to be 0.07 L/kg. For the same compound, the Activity is 84% in data set [1] and 80% in data set [4]. Further, the EC50 came out at 210 nM at Bile acid receptor [2] and 320 nM on Bile acid receptor [3]. Also, in data set [6], the bioavailability came out at 12%. In addition, the half-life in data set [7] was determined as 45 min. Besides, the clearance in data set [8] came to 6.7 mL/min/kg.

As for `CC(C)c1onc(-c2c(Cl)cccc2Cl)c1COc1ccc2cc(-c3cccc(C(=O)O)c3)ccc2c1`, the Activity is 103% in data set [1] and 88% in data set [4]. Moreover, the figures for the half-maximal effective concentration (EC50) on Bile acid receptor [2] and at Bile acid receptor [3] were 130 nM and 110 nM, respectively.

With `CC(C)c1onc(-c2c(Cl)cccc2Cl)c1COc1ccc2sc(-c3ccc(C(=O)O)cc3)cc2c1`, the Activity amounted to 89% in data set [1] and 80% in data set [4]. The EC50 on Bile acid receptor [2] is 160 nM; on Bile acid receptor [3], 280 nM.

With `CC(C)c1onc(-c2c(Cl)cccc2Cl)c1CCc1nc2cc(-c3cccc(C(=O)O)c3)ccc2o1`, the Activity in data set [1] came out at 75%; in data set [4], 41%. Besides, the EC50 at Bile acid receptor [2] was 710 nM; on Bile acid receptor [3], 1200 nM.

Regarding `CC(C)c1onc(-c2c(Cl)cccc2Cl)c1CNc1nc2ccc(-c3cccc(C(=O)O)c3)cc2s1`, the Activity turned out to be 123% in data set [1] and 91% in data set [4]. Besides, the EC50 was 380 nM at Bile acid receptor [2] and 960 nM on Bile acid receptor [3].

In the case of `CC(C)c1onc(-c2c(Cl)cccc2Cl)c1CCc1nc2cccc(Nc3cccc(C(=O)O)c3)c2o1`, the EC50 at Bile acid receptor [2] was more than 10000 nM; on Bile acid receptor [3], 1700 nM. The Activity in data set [4] came out at 19%.

For `CC(C)c1onc(-c2c(Cl)cccc2Cl)c1COc1ccc2c(Nc3cccc(C(=O)O)c3)cccc2c1`, the Activity was 57% in data set [1] and 95% in data set [4]. Besides, the EC50 was found to be 81 nM at Bile acid receptor [2] and 320 nM on Bile acid receptor [3].

On to `CC(C)c1onc(-c2c(Cl)cccc2Cl)c1COc1ccc2c(Cc3cccc(C(=O)O)c3)c[nH]c2c1`, for which the Activity turned out to be 32% in data set [1] and 81% in data set [4]. Further, the EC50 at Bile acid receptor [2] was 930 nM; at Bile acid receptor [3], 590 nM.

As for `CC(C)c1onc(-c2c(Cl)cccc2Cl)c1COc1ccc2c(c1)ncn2Cc1cccc(C(=O)O)c1`, in data set [5], the Vd is 0.085 L/kg. The Activity in data set [1] came out at 40%; in data set [4] it was 38%. The EC50 on Bile acid receptor [2] is 5000 nM; on Bile acid receptor [3], 1400 nM. This compound registered a bioavailability in data set [6] of 26%. Moreover, in data set [7], the half-life was found to be 31 min. Further, the clearance in data set [8] was determined as 4.4 mL/min/kg.

Regarding `CC(C)c1onc(-c2c(Cl)cccc2Cl)c1COc1ccc2c(ccn2C(=O)c2cccc(C(=O)O)c2)c1`, the Activity is 63% in data set [1] and 68% in data set [4]. The results for the EC50 on Bile acid receptor [2] and on Bile acid receptor [3] were 860 nM and 150 nM, respectively.

Turning to `CC(C)c1onc(-c2c(Cl)cccc2Cl)c1COc1ccc2sc(-c3cccc(C(=O)O)c3)cc2c1`, the Vd in data set [5] was found to be 0.72 L/kg. For the same compound, the Activity in data set [1] stood at 87%; in data set [4], 90%. The EC50 at Bile acid receptor [2] turned out to be 32 nM; on Bile acid receptor [3], 55 nM. Moreover, the bioavailability in data set [6] amounted to 8.5%. Also, the half-life in data set [7] was found to be 15 min. Moreover, in data set [8], the clearance was 66 mL/min/kg.

In the case of `CC(C)c1onc(-c2c(Cl)cccc2Cl)c1COc1ccc2c(c1)CN(c1cccc(C(=O)O)c1)C2=O`, the Activity was 61% in data set [1] and 59% in data set [4]. Besides, the EC50 at Bile acid receptor [2] came out at 1100 nM; on Bile acid receptor [3], 670 nM.

Take `CC(C)c1onc(-c2c(Cl)cccc2Cl)c1COc1ccc2cc(-c3ccc(C(=O)O)cc3)ccc2c1`: the Activity in data set [1] was 170%; in data set [4], 68%. The EC50 stood at 980 nM at Bile acid receptor [2] and 440 nM on Bile acid receptor [3].

For the compound `CC(C)c1onc(-c2c(Cl)cccc2Cl)c1COc1ccc2cc(-c3cccc(C(=O)O)c3)sc2c1`, the results for the Activity in data set [1] and in data set [4] were 93% and 92%, respectively. For the same compound, the EC50 was found to be 63 nM at Bile acid receptor [2] and 140 nM at Bile acid receptor [3].

Consider `CC(C)c1onc(-c2c(Cl)cccc2Cl)c1COc1ccc2[nH]cc(Cc3cccc(C(=O)O)c3)c2c1`, for which the values for the EC50 on Bile acid receptor [2] and at Bile acid receptor [3] were more than 10000 nM and 1500 nM, respectively. Also, the Activity in data set [4] was 25%.

Regarding `CC(C)c1onc(-c2c(Cl)cccc2Cl)c1COc1ccc2c(c1)CCN(c1cccc(C(=O)O)c1)C2=O`, the Activity in data set [1] was found to be 112%; in data set [4], 52%. Moreover, the EC50 on Bile acid receptor [2] stood at 8300 nM; on Bile acid receptor [3] it was 710 nM.

With `CC(C)c1onc(-c2c(Cl)cccc2Cl)c1COc1ccc2c(ccn2S(=O)(=O)c2cccc(C(=O)O)c2)c1`, the Activity in data set [1] was determined as 63%; in data set [4], 87%. In addition, the EC50 stood at 1300 nM on Bile acid receptor [2] and 160 nM at Bile acid receptor [3].

Values taken from ChEMBL document CHEMBL1154026, “FXR agonist activity of conformationally constrained analogs of GW 4064” (Bioorg Med Chem Lett, 2009).
